Measured values published in publication PMC12473906, “Comparing the Altis RepliGut Organoid System to MDCK Monolayers in Predicting the Oral Absorption of Lenalidomide” (Pharmaceutics, 2025).
Like-named read-outs stand apart in the source and are kept apart here.

Assays:
[1] = system: human intestinal organoid-derived monolayer (RepliGut)
[2] = ref PubChem; cited from earlier work
[3] = cited from earlier work; for Main Route of Absorption: as listed in Table 2, no reference given
[4] = in vitro; conditions: human, pH 7.4
[5] = gMDCK (P-gp knockout MDCK) monolayer permeability assay; conditions: dog, MDCK, pH 7.4, gMDCK Papp, reference compounds; apical to basolateral; n=3 biological replicates
[6] = RepliGut human jejunal organoid-derived monolayer permeability assay; conditions: human, pH 7.4
[7] = system: human intestinal organoid-derived monolayer (RepliGut); test: as above; conditions: organoid vs gMDCK
[8] = system: gMDCK monolayers; conditions: MDCK
[9] = in vitro; conditions: dog, MDCK, pH 7.4, gMDCK Papp

Compound | Efflux Substrate [1] | LogP [2] | Main Route of Absorption [3] | Human Fa (fraction absorbed) [3] | Papp at 3 h [6] [×10⁻⁶ cm/s] | apical to basolateral apparent permeability in intestinal organoids compared with gMDCK monolayers [7] | basolateral to apical permeability in intestinal organoids compared with gMDCK cells [7] | basolateral to apical permeability in intestinal organoids compared with gMDCK cells [1] | other results
CC(C)CN(C[C@@H](O)[C@H](Cc1ccccc1)NC(=O)O[C@H]1CCOC1)S(=O)(=O)c1ccc(N)cc1 [Amprenavir] | Yes | 2.2 | Transcellular | – | – | – | – | – | –
CC(C)(C)NCC(O)COc1cccc2c1CC(O)C(O)C2 (stereo not drawn) [Nadolol] | Yes | – | Paracellular | 57% [9] | 0.17 | higher | significantly higher | – | efflux ratio at 3 h [4]: > 4; Papp at 3 h [5]: 0.09 ×10⁻⁶ cm/s
Lucifer yellow | – | – | – | – | – | – | – | similar | effect of shaking gMDCK cells during the permeability assay on permeability [8]: did not significantly change; apical to basolateral apparent permeability in intestinal organoids compared with gMDCK monolayers [1]: higher
CC(CCc1ccccc1)NCC(O)c1ccc(O)c(C(N)=O)c1 (stereo not drawn) [Labetalol] | – | 1.8 | Both | 95% [9] | 0.85 | significantly lower | significantly higher | – | –
COCCc1ccc(OCC(O)CNC(C)C)cc1 (stereo not drawn) [Metoprolol] | No | – | – | – | – | – | – | similar | Papp at 3 h [9]: 13 ×10⁻⁶ cm/s; Papp at 3 h [4]: 10.1 ×10⁻⁶ cm/s
